Counter-ions that a name gives are not always drawn. Like-named read-outs stand apart in the source and are kept apart here. One block for each molecule: values may come before it.
Biological target: T1, protein farnesyltransferase (Rattus norvegicus, UniProt Q02293+Q04631)
T1 construct: The enzyme is purified according to Reiss, Y., et al., Cell, 62: 81-88 (1990), utilizing steps one through three; from tissue; host or cells: rat brain
Assay: Inhibition of farnesyltransferase (scintillation proximity assay, rat brain enzyme, biotin-K Ras B fragment substrate)
Type: biochemical
Conditions: for inhibition at 1 µM: read-out: % inhibition of farnesyltransferase at 1 × 10^-6 M; for inhibition at 1 µM / % inhibition of farnesyltransferase at 1 × 10^-6 M: 1 × 10^-6 M (Table 2); for % inhibition of farnesyltransferase at 1 × 10^-5 M: 1 × 10^-5 M (Table 1); for % inhibition of farnesyltransferase at 1 × 10^-8 M: 1 × 10^-8 M (Table 4)
Outline: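 Enzyme from rat brain, partly purified (steps one to three), assayed by SPA kit using 0.1 mM final biotin-K Ras B peptide as prenyl acceptor rather than biotin-lamin. Activity given as percent inhibition.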

[1] = read-out: % inhibition of farnesyltransferase at 1 × 10^-7 M, 1 × 10^-7 M (Table 3)

T1 sequence (Q02293 whole entry, one chain of several): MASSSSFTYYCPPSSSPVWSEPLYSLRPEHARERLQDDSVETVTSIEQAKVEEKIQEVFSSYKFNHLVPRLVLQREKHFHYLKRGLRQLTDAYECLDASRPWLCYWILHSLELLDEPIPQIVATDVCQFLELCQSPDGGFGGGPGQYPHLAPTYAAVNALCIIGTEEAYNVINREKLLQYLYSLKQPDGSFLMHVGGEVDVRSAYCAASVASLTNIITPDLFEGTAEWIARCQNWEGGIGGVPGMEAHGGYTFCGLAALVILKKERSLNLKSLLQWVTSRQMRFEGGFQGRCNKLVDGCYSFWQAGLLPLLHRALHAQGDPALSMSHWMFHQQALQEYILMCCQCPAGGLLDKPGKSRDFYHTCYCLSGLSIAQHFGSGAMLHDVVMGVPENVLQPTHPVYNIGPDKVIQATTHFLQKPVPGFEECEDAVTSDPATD

SMILES: CSCC[C@H](NC(=O)c1ccc(CCc2ccc(Oc3ccccc3)cc2)cc1-c1ccccc1C)C(=O)O [Example 462, N-[4-(2-(4-phenoxyphenyl)ethyl)-2-(2-methylphenyl)benzoyl]methionine lithium salt]
inhibition at 0.1 µM [1]: 91%

SMILES: CSCC[C@H](NC(=O)c1ccc(COCc2ccccc2Cl)cc1-c1ccccc1C)C(=O)[O-].[Li+] [Example 930]
% inhibition of farnesyltransferase at 1 × 10^-8 M: 66%

SMILES: CSCC[C@H](NC(=O)c1ccc(CNC(CC2CCCCC2)C2CCCCC2)cc1-c1ccccc1C)C(=O)[O-].[Li+] (stereo partly shown) [Example 616]
% inhibition of farnesyltransferase at 1 × 10^-7 M (1 × 10^-7 M (Table 3)): 95%

SMILES: CSCC[C@H](NC(=O)c1ccc(CN2CCN(C)CC2)cc1-c1ccccc1)C(=O)O [Example 289, [4-(4-methylpiperazinylmethyl)-2-phenylbenzoyl]methionine]
inhibition at 1 µM: 23%

SMILES: CCSCC(CCC1CCCCC1)Cc1ccc(C(=O)N[C@@H](CCSC)C(=O)O)c(-c2ccccc2C)c1 (stereo partly shown) [Example 1300, N-[4-(2-(2-Cyclohexylethyl)-1-ethylthioprop-3-yl)-2-(2-methylphenyl)benzoyl]methionine Lithium Salt]
inhibition at 0.1 µM (read-out: % inhibition at 0.1 μM (*), Table 6, * = 0.1 μM (footnote), title prints 0.1 mM): 97%

SMILES: CSCC[C@H](NC(=O)c1ccc(COCc2ccc(CN(C)C)o2)cc1-c1ccccc1C)C(=O)O [Example 435]
% inhibition of farnesyltransferase at 1 × 10^-6 M: 96%

SMILES: CSCC[C@H](NC(=O)c1ccc(/C=C/c2cnccn2)cc1-c1ccccc1C)C(=O)O [Example 495, N-[4-(2-pyrazin-2-ylethen-1-yl)-2-(2-methylphenyl)benzoyl]methionine lithium salt]
inhibition at 1 µM: 95%

SMILES: CSCC[C@H](NC(=O)c1ccc(COCc2ccc(-c3ccc(F)cc3)o2)cc1-c1cccc2ccccc12)C(=O)[O-].[Li+] [Example 868]
% inhibition of farnesyltransferase at 1 × 10^-6 M: 89%

SMILES: CSCC[C@H](NC(=O)c1ccc(CCCCC2CCCCC2)cc1-c1ccccc1C)C(=O)O [Example 478, N-[4-(4-cyclohexylbutyl)-2-(2-methyphenyl)benzoyl]methionine sodium salt]
inhibition at 1 µM: 98%

SMILES: CSCC[C@H](NC(=O)c1ccc(/C=C/CCc2ccccc2)cc1-c1ccccc1C)C(=O)O [Example 472, N-[4-(4-phenylbut-1-enyl)-2-(2-methylphenyl)benzoyl]methionine]
inhibition at 1 µM: 97%

SMILES: CSCC[C@H](NC(=O)c1ccc(CN(C2CC2)C2(Cc3ccccc3)CCC2)cc1-c1ccccc1C)C(=O)O [Example 329]
inhibition at 1 µM: 98%

SMILES: CSCC[C@H](NC(=O)c1ccc(COCCc2ccc3ccccc3c2)cc1-c1ccccc1C)C(=O)[O-].[Li+] [Example 593]
% inhibition of farnesyltransferase at 1 × 10^-7 M (1 × 10^-7 M (Table 3)): 86%

SMILES: CSCC[C@H](NC(=O)c1ccc(C=Cc2ccccc2Cc2ccccc2)cc1-c1ccccc1C)C(=O)O [Example 457, N-[4-(2-(2-benzylphenyl)ethenyl)-2-(2-methylphenyl)benzoyl]methionine lithium salt]
inhibition at 1 µM: 92%

SMILES: CSCC[C@H](NC(=O)c1ccc(CN(Cc2ccccc2)c2ccccc2SC)cc1-c1ccccc1C)C(=O)[O-].[Li+] [Example 850]
% inhibition of farnesyltransferase at 1 × 10^-6 M: 90%

SMILES: CSCC[C@H](NC(=O)c1ccc(COCc2cccc(C)c2)cc1-c1ccccc1C)C(=O)[O-].[Li+] [Example 578]
% inhibition of farnesyltransferase at 1 × 10^-7 M (1 × 10^-7 M (Table 3)): 90%

SMILES: CSCC[C@H](NC(=O)c1ccc(NC(=O)[C@@H]2CSCN2)cc1-c1ccccc1)C(=O)O [Example 165]
% inhibition of farnesyltransferase at 1 × 10^-6 M: 74%

SMILES: CSCC[C@H](NC(=O)c1ccc(CN(CCC23CC4CC(CC(C4)C2)C3)c2ccccc2)cc1-c1ccccc1C)C(=O)O [Example 511]
% inhibition of farnesyltransferase at 1 × 10^-7 M (1 × 10^-7 M (Table 3)): 82%

SMILES: CSCCC(NC(=O)c1ccc(NC(=O)c2cncnc2)cc1-c1ccccc1)C(=O)O (stereo not shown) [Example 219]
% inhibition of farnesyltransferase at 1 × 10^-6 M: 56%

SMILES: COc1ccccc1CCC(=O)Nc1ccc(C(=O)N[C@@H](CCSC)C(=O)O)c(-c2ccccc2C)c1 [Example 544]
% inhibition of farnesyltransferase at 1 × 10^-6 M: 35%

SMILES: CSCC[C@H](NC(=O)c1ccc(C=CCCCc2ccccc2)cc1-c1ccccc1C)C(=O)O [Example 480, N-[4-(5-phenylpent-1-enyl)-2-(2-methylphenyl)benzoyl]methionine]
inhibition at 1 µM: 87%

SMILES: CSCC[C@H](NC(=O)c1ccc(COCC2CCOC2)cc1-c1ccccc1)C(=O)O (stereo partly shown) [Example 287]
% inhibition of farnesyltransferase at 1 × 10^-6 M: 24%

SMILES: Cc1ccccc1-c1cc(CN(C)C(C)(C)Cc2ccccc2)ccc1C(=O)N[C@@H](CCS(C)(=O)=O)C(=O)O [Example 313]
inhibition at 1 µM: 94%

SMILES: CSCC[C@H](NC(=O)c1ccc(NC(=O)Cc2ccc(C)cc2)cc1-c1ccccc1C)C(=O)O [Example 541]
% inhibition of farnesyltransferase at 1 × 10^-6 M: 37%

SMILES: CCOC(=O)N1CCC(NCc2ccc(C(=O)N[C@@H](CCSC)C(=O)[O-])c(-c3ccccc3C)c2)CC1.[Li+] [Example 806]
% inhibition of farnesyltransferase at 1 × 10^-6 M: 72%

SMILES: COc1ccc(COCc2ccc(C(=O)N[C@@H](CCSC)C(=O)[O-])c(-c3ccccc3C)c2)cc1.[Li+] [Example 935]
% inhibition of farnesyltransferase at 1 × 10^-7 M (1 × 10^-7 M (Table 3)): 72%

SMILES: CSCC[C@H](NC(=O)c1ccc(CNCCc2c[nH]c3ccccc23)cc1-c1ccccc1C)C(=O)O [Example 519]
% inhibition of farnesyltransferase at 1 × 10^-7 M (1 × 10^-7 M (Table 3)): 89%

Now from value to molecule:

inhibition at 1 µM: 79%
SMILES: CSCC[C@H](NC(=O)c1ccc(S(=O)(=O)NCCC2CCCCC2)cc1-c1ccccc1C)C(=O)O [Example 772, lithium salt]

% inhibition of farnesyltransferase at 1 × 10^-5 M: 79%
SMILES: CSCC[C@H](NC(=O)c1ccc(CNc2ccc(C(=O)c3ccccc3)cc2)cc1-c1ccccc1)C(=O)O [Example 702]

% inhibition of farnesyltransferase at 1 × 10^-7 M (1 × 10^-7 M (Table 3)): 95%
SMILES: CSCC[C@H](NC(=O)c1ccc(COCc2cnc(-c3ccc(F)cc3)s2)cc1-c1ccccc1C)C(=O)O [Example 900]

% inhibition of farnesyltransferase at 1 × 10^-5 M: 58%
SMILES: CSCC[C@H](NC(=O)c1ccc(NC(=O)c2cccc(N(C)C)c2)cc1-c1ccccc1)C(=O)O [Example 752]

% inhibition of farnesyltransferase at 1 × 10^-8 M: 91%
SMILES: CSCC[C@H](NC(=O)c1ccc(CN(Cc2ccc3c(c2)OCO3)c2cncnc2)cc1-c1ccccc1C)C(=O)O [Example 837]

% inhibition of farnesyltransferase at 1 × 10^-6 M: 32%
SMILES: CSCCC(CO)NCc1ccc(C(=O)N[C@@H](CCSC)C(=O)O)c(-c2ccccc2)c1 (stereo partly shown) [Example 633]

% inhibition of farnesyltransferase at 1 × 10^-7 M (1 × 10^-7 M (Table 3)): > 50%
SMILES: CSCC[C@H](NC(=O)c1ccc(NC[C@@H]2C[C@H](S)CN2)cc1-c1ccccc1)C(=O)O [Example 959]

% inhibition of farnesyltransferase at 1 × 10^-6 M: 69%
SMILES: CSCC[C@H](NC(=O)c1ccc(CN[C@@H](CC2CCCCC2)[C@@H](O)[C@@H](O)CC(C)C)cc1-c1ccccc1)C(=O)O [Example 716]

% inhibition of farnesyltransferase at 1 × 10^-5 M: 40%
SMILES: CSCC[C@H](NC(=O)c1ccc(CNC(CO)C(O)c2ccccc2)cc1-c1ccccc1)C(=O)O (stereo partly shown) [Example 713]

% inhibition of farnesyltransferase at 1 × 10^-6 M: 93%
SMILES: CSCC[C@H](NC(=O)c1ccc(OCCCCOc2ccccc2)cc1-c1ccccc1C)C(=O)O [Example 568]

% inhibition of farnesyltransferase at 1 × 10^-6 M: 91%
SMILES: CSCC[C@H](NC(=O)c1ccc(OC/C=C(\C)CC/C=C(\C)CCC=C(C)C)cc1-c1ccccc1C)C(=O)O [Example 547]

% inhibition of farnesyltransferase at 1 × 10^-6 M: 39%
SMILES: CSCC[C@H](NC(=O)c1ccc(CNc2ccc(N3CCCCC3)cc2)cc1-c1ccccc1)C(=O)O [Example 697]

% inhibition of farnesyltransferase at 1 × 10^-7 M (1 × 10^-7 M (Table 3)): 90%
SMILES: CSCC[C@H](NC(=O)c1ccc(COCc2ccccc2)cc1-c1ccccc1C)C(=O)NS(=O)(=O)c1ccccc1 [Example 580]

inhibition at 0.1 µM [1]: 85%
SMILES: CSCC[C@H](NC(=O)c1ccc(CCc2ccc(Oc3ccccc3)nn2)cc1-c1ccccc1C)C(=O)O [Example 811, N-[4-(2-(3-phenoxylyridazin-6-yl)ethyl)-2-(2-methylphenyl)benzoyl]methionine lithium salt]

% inhibition at 0.01 μM (**) (Table 6, ** = 0.01 μM (footnote), title prints 0.01 mM): 89%
SMILES: COCCN(CCC1CCCCC1)Cc1ccc(C(=O)N[C@@H](CCSC)C(=O)O)c(-c2ccccc2C)c1 [Example 1104]

% inhibition of farnesyltransferase at 1 × 10^-6 M: 62%
SMILES: CSCC[C@H](NC(=O)c1ccc(CNCc2ccc(N)cc2)cc1-c1ccccc1)C(=O)O [Example 653]

% inhibition of farnesyltransferase at 1 × 10^-5 M: 74%
SMILES: CSCC[C@H](NC(=O)c1ccc(CNc2ccc(C(C)C)cc2)cc1-c1ccccc1)C(=O)O [Example 692]

inhibition at 0.1 µM [1]: 81%
SMILES: CCCC(CCC)NOCc1ccc(C(=O)N[C@@H](CCSC)C(=O)O)c(-c2ccccc2C)c1 [Example 929, N-[4-(N-Hept-4-ylaminooxymethyl)-2-(2-methylphenyl)benzoyl]methionine]

% inhibition of farnesyltransferase at 1 × 10^-6 M: 85%
SMILES: CSCC[C@H](NC(=O)c1ccc(CN(Cc2ccccc2)c2ccccc2Cl)cc1-c1ccccc1C)C(=O)O [Example 846]

% inhibition of farnesyltransferase at 1 × 10^-5 M: 44%
SMILES: CSCC[C@H](NC(=O)c1ccc(CNCC(C)(C)CN(C)C)cc1-c1ccccc1)C(=O)O [Example 639]

% inhibition of farnesyltransferase at 1 × 10^-5 M: 61%
SMILES: COc1ccc(NCc2ccc(C(=O)N[C@@H](CCSC)C(=O)O)c(-c3ccccc3)c2)cc1 [Example 690]

% inhibition of farnesyltransferase at 1 × 10^-5 M: 56%
SMILES: CSCC[C@H](NC(=O)c1ccc(CNC(CO)Cc2ccccc2)cc1-c1ccccc1)C(=O)O (stereo partly shown) [Example 714]

% inhibition of farnesyltransferase at 1 × 10^-8 M: > 50%
SMILES: CSCC[C@H](NC(=O)c1ccc(NC[C@H]2NCC[C@H]2S)cc1-c1ccccc1)C(=O)O [Example 960]

% inhibition of farnesyltransferase at 1 × 10^-7 M (1 × 10^-7 M (Table 3)): 57%
SMILES: CCSC[C@H](CC1CCCCC1)N(Cc1ccc(C(=O)N[C@@H](CCSC)C(=O)O)c(-c2ccccc2C)c1)C(=O)c1ccccc1 [Example 949]

% inhibition of farnesyltransferase at 1 × 10^-7 M (1 × 10^-7 M (Table 3)): 92%
SMILES: CSCC[C@H](NC(=O)c1ccc(COCCCCc2ccccc2)cc1-c1ccccc1C)C(=O)O [Example 601]

inhibition at 1 µM: 71%
SMILES: CSCC[C@H](NC(=O)c1ccc(CN2CCN(c3ccccc3)CC2)cc1-c1ccccc1C)C(=O)O [Example 867, N-[4-(4-phenylpiperazin-1-ylmethyl)-2-(2-methylphenyl)benzoyl]methionine]

Source: patent US6221865A, “Inhibitors of protein isoprenyl transferases” (priority 1998, dated 2001)
